The target of the first assay is ACL (Homo sapiens (Human), UniProt P53396). Put plainly: ADP-Glo Assay.
ACL, sequence (P53396 other isoform, or with tags, fused parts or gaps isoform P53396-2): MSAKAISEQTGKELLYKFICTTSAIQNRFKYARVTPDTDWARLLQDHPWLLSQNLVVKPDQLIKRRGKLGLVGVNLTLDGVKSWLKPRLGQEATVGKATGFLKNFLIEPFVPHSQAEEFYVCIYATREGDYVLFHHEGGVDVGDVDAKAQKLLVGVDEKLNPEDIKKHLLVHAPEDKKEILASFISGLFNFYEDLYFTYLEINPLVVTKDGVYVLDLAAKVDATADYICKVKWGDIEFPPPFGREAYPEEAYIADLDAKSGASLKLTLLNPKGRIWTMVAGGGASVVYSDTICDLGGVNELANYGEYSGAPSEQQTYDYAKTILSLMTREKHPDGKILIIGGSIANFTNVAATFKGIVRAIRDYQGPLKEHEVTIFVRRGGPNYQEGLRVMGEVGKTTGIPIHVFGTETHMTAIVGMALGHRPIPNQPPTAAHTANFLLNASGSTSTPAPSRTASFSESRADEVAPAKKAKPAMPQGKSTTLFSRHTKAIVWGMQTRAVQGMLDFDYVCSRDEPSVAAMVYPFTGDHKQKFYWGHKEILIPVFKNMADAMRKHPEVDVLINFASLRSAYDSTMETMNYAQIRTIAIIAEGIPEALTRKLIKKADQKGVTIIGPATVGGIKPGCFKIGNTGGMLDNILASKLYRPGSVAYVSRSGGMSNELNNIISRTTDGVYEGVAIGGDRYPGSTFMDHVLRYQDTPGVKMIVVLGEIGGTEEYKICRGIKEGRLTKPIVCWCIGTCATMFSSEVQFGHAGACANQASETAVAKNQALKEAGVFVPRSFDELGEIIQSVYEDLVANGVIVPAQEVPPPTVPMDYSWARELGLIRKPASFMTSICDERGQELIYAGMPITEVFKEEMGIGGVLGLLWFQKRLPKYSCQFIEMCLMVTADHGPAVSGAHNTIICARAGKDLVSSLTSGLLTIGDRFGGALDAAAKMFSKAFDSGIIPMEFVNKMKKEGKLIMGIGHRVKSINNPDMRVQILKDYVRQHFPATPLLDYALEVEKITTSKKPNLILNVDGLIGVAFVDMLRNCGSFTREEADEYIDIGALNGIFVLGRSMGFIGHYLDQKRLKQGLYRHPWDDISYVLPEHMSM
Settings: not given
(In general: ADP-Glo first removes unused ATP, then detects ADP through luciferase.)
In the case of `COc1ccc(-c2cccnc2)cc1NS(=O)(=O)c1cc(C(=O)O)cc(Cl)c1OC` [I-425, 3-chloro-4-methoxy-5-(N-(2-methoxy-5-(pyridin-3-yl)phenyl)sulfamoyl)benzoic Acid], the IC50 (usually the point on the concentration scale where inhibition reaches its midpoint) is > 20 µM.
Regarding `O=S(=O)(NCc1cc(-c2ccccc2)ccc1F)c1cc(Cl)cc(Cl)c1O` [I-125, 3,5-dichloro-N-((4-fluoro-[1,1′-biphenyl]-3-yl)methyl)-2-hydroxybenzenesulfonamide], the IC50 lay within 0.5 to 20 µM.
On to `CO[C@@H]1CCN(C(=O)c2cc(Cl)cc(S(=O)(=O)Nc3cc(-c4ccccc4)c(F)cc3F)c2)C1` [I-388, (R)-3-chloro-N-(4,6-difluoro-[1,1′-biphenyl]-3-yl)-5-(3-methoxypyrrolidine-1-carbonyl)benzenesulfonamide], for which the IC50 was > 20 µM.
Same read-out and setting: to `COc1ccc(-c2ccccc2)cc1N(Cc1ccccc1)S(=O)(=O)c1cn[nH]c1` [I-417, N-benzyl-N-(2-methoxy-5-phenylphenyl)-1H-pyrazole-4-sulfonamide] belongs > 20 µM; to `O=S(=O)(Nc1cc(-c2ccccc2)ccc1F)c1cc(Cl)ccc1O` [I-30, 5-chloro-N-(2-fluoro-5-phenylphenyl)-2-hydroxybenzene-1-sulfonamide], 0.5 to 20 µM; to `COC(=O)c1cccc(S(=O)(=O)Nc2cc(-c3ccccc3)c(F)cc2F)c1` [I-191, methyl 3-([4,6-difluoro-[1,1-biphenyl]-3-yl]sulfamoyl)benzoate], 0.5 to 20 µM.
`O=C(O)COc1c(Cl)cc(Cl)cc1C(=O)Nc1cc(-c2ccccc2)ccc1C(=O)O` [I-308, 3-(2-(carboxymethoxy)-3,5-dichlorobenzamido)-[1,1′-biphenyl]-4-carboxylic Acid] had an IC50 of 0.5 to 20 µM.
As to `O=C(O)c1sccc1NS(=O)(=O)c1cc(Cl)cc(Cl)c1` [I-362, 3-((3,5-dichlorophenyl)sulfonamido)thiophene-2-carboxylic Acid], the IC50 lay in the range of 0.5 to 20 µM.
Take `O=C(O)CCCOc1ccc(-c2ccccc2)cc1NS(=O)(=O)c1cc(Cl)cc(Cl)c1` [I-291, 4-[[3-(3,5-dichlorobenzenesulfonamido)-[1,1-biphenyl]-4-yl]oxy]butanoic Acid]: the IC50 is 0.5 to 20 µM.
On the same count and under the same terms, then `O=S(=O)(Nc1cc(-c2ccccc2)ccc1F)c1cc(-c2nn[nH]n2)ccc1F` [I-424, 2-fluoro-N-(2-fluoro-5-phenylphenyl)-5-(2H-1,2,3,4-tetrazol-5-yl)benzene-1-sulfonamide], with > 20 µM; and `O=C(O)c1ccc(-c2ccccc2)cc1NS(=O)(=O)c1ccc(-n2cccn2)c(F)c1` [I-358], with 0.5 to 20 µM; and `O=S(=O)(Nc1cccc2cccc(F)c12)c1cc(Cl)cc(Cl)c1O` [I-186], with 0.5 to 20 µM.
For the compound `COc1ccc(-c2ccccc2)cc1NS(=O)(=O)c1cc(Cl)cc(Cl)c1NS(C)(=O)=O` [I-263, 3,5-dichloro-2-methanesulfonamido-N-[4-methoxy-[1,1-biphenyl]-3-yl]benzene-1-sulfonamide], the IC50 was in the range of 0.5 to 20 µM.
In turn, `O=C(Oc1c(Cl)cc(C(=O)N2CCC2)cc1S(=O)(=O)N(C(=O)C1CC1)c1cc(-c2ccccc2)c(F)cc1F)C1CC1` [I-217, 4-(azetidine-1-carbonyl)-2-chloro-6-[(1-cyclopropyl-N-[4,6-difluoro-[1,1-biphenyl]-3-yl]formamido)sulfonyl]phenylcyclopropanecarboxylate] registered an IC50 of 0.5 to 20 µM.
On the same count and under the same terms, then `Cc1cccc(C(=O)O)c1NS(=O)(=O)c1cc(Cl)cc(Cl)c1` [I-533, 2-((3,5-dichlorophenyl)sulfonamido)-3-methylbenzoic acid], with > 20 µM; and `CNC(=O)c1cc(Cl)c(OC)c(S(=O)(=O)Nc2cc(-c3ccccc3)ccc2OC)c1` [I-433, 3-chloro-4-methoxy-5-(N-(4-methoxy-[1,1′-biphenyl]-3-yl)sulfamoyl)-N-methylbenzamide], with > 20 µM; and `COc1cc(F)c(-c2cc3ccccc3s2)cc1NS(=O)(=O)c1cc(C(=O)O)cc(F)c1O` [I-517, 3-(N-(5-(benzo[b]thiophen-2-yl)-4-fluoro-2-methoxyphenyl)sulfamoyl)-5-fluoro-4-hydroxybenzoic Acid], with 0.5 to 20 µM.
`COc1ccc(-c2ccccc2)cc1NS(=O)(=O)c1cc(Cl)cc(-c2nn[nH]n2)c1` [I-38, 3-chloro-N-(2-methoxy-5-phenylphenyl)-5-(2H-1,2,3,4-tetrazol-5-yl)benzene-1-sulfonamide] came in with an IC50 of 0.5 to 20 µM.
On to `CS(=O)(=O)c1cc(Cl)cc(S(=O)(=O)Nc2cc(-c3ccccc3)c(F)cc2F)c1` [I-392, 3-chloro-N-(4,6-difluoro-[1,1′-biphenyl]-3-yl)-5-(methylsulfonyl)benzenesulfonamide], for which the concentration for half-maximal inhibition (IC50) is > 20 µM.
`COc1ccc(-c2ccccc2)cc1N(Cc1ccccc1)S(=O)(=O)c1c(C)c(Cl)cc(Cl)c1OCc1ccccc1` [I-397, N-benzyl-2-(benzyloxy)-3,5-dichloro-N-(4-methoxy-[1,1′-biphenyl]-3-yl)-6-methylbenzenesulfonamide]: the IC50 was > 20 µM.
Regarding `CC(=O)N1CCCN(c2ccc(F)cc2NS(=O)(=O)c2cc(Cl)cc(Cl)c2O)CC1` [I-175], the IC50 is 0.5 to 20 µM.
`CCC(=O)Oc1c(Cl)cc(C(=O)OC)cc1S(=O)(=O)Nc1cc(-c2ccccc2)ccc1F` [I-120, Methyl 3-chloro-5-([4-fluoro-[1,1-biphenyl]-3-yl]sulfamoyl)-4-(propanoyloxy)benzoate] returned an IC50 of 0.05 to 0.5 µM.
In turn, `COc1ccc(CN(C)S(=O)(=O)c2cc(Cl)cc(Cl)c2O)cc1` [I-166] registered an IC50 of 0.5 to 20 µM.
`O=C(O)c1ccc(-c2ccccc2)cc1NS(=O)(=O)c1cccc(Cl)c1` [I-273, 3-((3-chlorophenyl)sulfonamido)-[1,1′-biphenyl]-4-carboxylic acid] displayed an IC50 of 0.5 to 20 µM.
`O=C(O)c1ccc(-c2ccccc2)cc1NS(=O)(=O)c1cc(Cl)cc(-c2nccs2)c1` [I-234, 3-((3-chloro-5-(thiazol-2-yl)phenyl)sulfonamido)-[1,1′-biphenyl]-4-carboxylic Acid] returned an IC50 of 0.5 to 20 µM.
Still for that read-out and setting: then `O=C(O)c1ccc(-c2ccccc2)cc1NS(=O)(=O)c1ccc(Cl)c(Cl)c1` [I-284, 3-((3,4-dichlorophenyl)sulfonamido)-[1,1′-biphenyl]-4-carboxylic acid], with 0.5 to 20 µM.
Regarding `COc1ccc(-c2ccccc2)cc1NC(=O)c1cc(Cl)cc(Cl)c1O` [I-18, 3,5-dichloro-2-hydroxy-N-(4-methoxy-[1,1′-biphenyl]-3-yl)benzamide], the IC50 lay within 0.5 to 20 µM.
The compound `O=S(=O)(Nc1cc(-c2ccccc2)ccc1F)c1cc(Cl)cc(Cl)c1OC1COC1` [I-122, 3,5-dichloro-N-(4-fluoro-[1,1′-biphenyl]-3-yl)-2-(oxetan-3-yloxy)benzenesulfonamide] returned an IC50 of 0.5 to 20 µM.
On to `COCc1cc(Cl)cc(S(=O)(=O)Nc2cc(-c3ccccc3)ccc2C(=O)O)c1` [I-337], for which the IC50 was 0.5 to 20 µM.
On the same count and under the same terms, to `O=S(=O)(Nc1cc(-c2ccccc2)ccc1O)c1cccc(-c2nn[nH]n2)c1` [I-25, N-(2-hydroxy-5-phenylphenyl)-3-(2H-1,2,3,4-tetrazol-5-yl) benzene-1-sulfonamide] belongs 0.5 to 20 µM.

The same assay, now with this note: read-out: ACL-ADP-Glo (IC50); 3 nM ACL, 15 μM ATP, 3 μM CoA, 300 μM Citrate.
As to `CN(C)C(=O)c1cc(Cl)c(O)c(S(=O)(=O)Nc2cc(-c3ccccc3)ccc2C(=O)O)c1` [I-518, 3-((3-chloro-5-(dimethylcarbamoyl)-2-hydroxyphenyl)sulfonamido)-[1,1′-biphenyl]-4-carboxylic Acid], the IC50 was 0.5 to 20 µM.

Values taken from patent publication US11555012B2 (Nimbus Artemis, Inc., priority 2018, dated 2023).
